In US11952388B2, “Crystal form of tri-cycle compound and application thereof” (FUJIAN AKEYLINK BIOTECHNOLOGY CO., LTD., priority 2018, dated 2024):

Legend:
HBV = HBV in vitro test: quantitative qPCR of HBV DNA in HepG2.2.15 cells; format: cell-based
Procedure: The HBV DNA content in HepG2.2.15 cells was detected by Real-time quantitative qPCR, and EC50 value of compounds was used as an indicator to evaluate inhibitory effect of compounds on HBV.
2.1 Cell Line: HepG2.2.15 Cells
3.1 HepG2.2.15 cells (4×10^4 cells/well) were bedded to a 96-well plate and cultured overnight at 37° C., 5% CO2.
3.2 On the day 2, the compound was diluted to a total of 8 concentrations, with a 3-fold gradient dilution. Different concentrations of compounds were added to the culture wells in duplicate. The final concentration of DMSO in the culture medium was 1%. 1 μM GLS4 was used as a 100% inhibition control; 1% DMSO was used as a 0% inhibition control.
3.3 On the day 5, the culture medium was replaced with fresh culture medium containing the compound.
3.4 On the day 8, the culture medium in the culture wells was collected, and DNA was extracted with the high-throughput DNA purification kit (Qiagen-51162). Refer product manual for specific steps.
3.6 15 μL of reaction mixture was added to each well of a 96-well PCR plate, and then 10 μL of sample DNA or HBV DNA standard was added to each well.
3.7 The reaction settings for PCR are: heating at 95° C. for 10 minutes; then denaturation at 95° C. for 15 seconds, and extension at 60° C. for 1 minute, a total of 40 cycles. […]

[1] = Pharmacokinetics of oral administration and intravenous injection in Balb/c mice; format: in vivo; details: female, mouse, plasma
Procedure: 1. Study on the Pharmacokinetics of Oral Administration and Intravenous Injection of the Compound Represented by Formula (I) in Balb/c Mice The compound represented by formula (I) was mixed with 5% DMSO/55% polyethylene glycol 400/40% aqueous solution, vortexed and sonicated to obtain an approximately clear solution of 1 mg/mL, which was then filtered by a microporous membrane for later use. Female Balb/c mice aged 7 to 10 weeks were selected and the candidate compound solution was administered intravenously at a dose of 1 mg/kg. The compound represented by formula (I) was mixed with 10% solutol (polyethylene glycol-15 hydroxystearate) aqueous solution, vortexed and sonicated to obtain an approximately clear solution of 1 mg/mL, which was then filtered through a microporous membrane for later use. Female Balb/c mice aged 7 to 10 weeks were selected and the candidate compound solution was orally administered at a dose of 10 mg/kg. Whole blood was collected at a certain period of time to prepare plasma, drug concentration was analyzed by LC-MS/MS method, and pharmacokinetic parameters was calculated by Phoenix WinNonlin software (Pharsight, USA). Note: T1/2 means half-life; Vdss means apparent volume of distribution; Cl means clearance rate; AUC0_last means area below the drug-time curve; Tmax means peak time; Cmax means peak concentration; F % means oral bioavailability; iv means intravenous injection; PO means oral administration; mpk means mg/kg.

[2] = Pharmacokinetics of oral administration and intravenous injection in Beagle; format: in vivo, beagle dogs
Procedure: 3. Study on the Pharmacokinetics of Oral Administration and Intravenous Injection of the Compound Represented by Formula (I) in Beagle The compound represented by formula (I) was mixed with 5% DMSO/55% polyethylene glycol 400/40% aqueous solution, vortexed and sonicated to obtain an approximately clear solution of 1 mg/mL, which was then filtered by a microporous membrane for later use. Male beagle dogs weighed about 10 kg were selected and the candidate compound solution was administered intravenously at a dose of 1 mg/kg. The compound represented by formula (I) was mixed with 10% solutol aqueous solution, vortexed and sonicated to obtain an approximately clear solution of 2 mg/mL, which was then filtered through a microporous membrane for later use. Male beagle dogs weighed about 10 kg were selected and the candidate compound solution was orally administered at a dose of 10 mg/kg. Whole blood was collected at a certain period of time to prepare plasma, drug concentration was analyzed by LC-MS/MS method, and pharmacokinetic parameters was calculated by Phoenix WinNonlin software (Pharsight, USA). Note: T1/2 means half-life; Vdss means apparent volume of distribution; Cl means clearance rate; AUC0_last means area below the drug-time curve; Tmax means peak time; Cmax means peak concentration; F % means oral bioavailability; iv means intravenous injection; PO means oral administration; mpk means mg/kg.

[3] = male, beagle, dog, plasma, 1 mg/kg, Dogs, iv 1 mpk
[4] = male, beagle, dog, plasma, 10 mg/kg, Dogs, po 10 mpk

**Q.** What does the source list for `Cc1cc2n(c1)S(=O)(=O)c1ccc(C(=O)NCC[C@H]3COCCO3)cc1NC2=O` [compound represented by formula (I)]?
**A.** inhibitory effect on HBV (conclusion in words) (HBV): significant inhibitory effect; EC50 (HBV; Hepatitis B virus, HBV DNA by qPCR, read-out: 50% inhibitory concentration (EC50) value of HBV): 8.16 nM; clearance ([1]; 1 mg/kg, iv 1 mpk): 8.5 mL/min/kg; half-life ([1]; 1 mg/kg, iv 1 mpk): 1.2 h; AUC(0-t) ([1]; 1 mg/kg, iv 1 mpk, read-out: AUC0-last): 4.67 µM·h; Vd ([1]; 1 mg/kg, iv 1 mpk, read-out: Vdss): 0.45 L/kg; Cmax ([1]; 10 mg/kg, po 10 mpk): 19.9 µM; Tmax ([1]; 10 mg/kg, po 10 mpk): 0.5 h; bioavailability ([1]; 10 mg/kg, po 10 mpk): 70%; AUC(0-t) ([1]; 10 mg/kg, po 10 mpk, read-out: AUC0-24h): 32.5 µM·h; pharmacokinetics (conclusion in words) ([2]; Beagle): good single or partial index of pharmacokinetics; clearance [2, 3]: 15.6 mL/min/kg; half-life [2, 3]: 2.87 h; AUC(0-t) ([2]; male, beagle, dog, plasma, 1 mg/kg, Dogs, iv 1 mpk, read-out: AUC0-last): 2.68 µM·h; Vd ([2]; male, beagle, dog, plasma, 1 mg/kg, Dogs, iv 1 mpk, read-out: Vdss): 2.95 L/kg; Cmax [2, 4]: 5.85 µM; Tmax [2, 4]: 1.67 h; bioavailability [2, 4]: 126%; AUC(0-t) ([2]; male, beagle, dog, plasma, 10 mg/kg, Dogs, po 10 mpk, read-out: AUC0-24h): 33.2 µM·h
